According to ChEMBL document CHEMBL5518207, “Structure Guided Discovery of Novel Pan Metallo-β-Lactamase Inhibitors with Improved Gram-Negative Bacterial Cell Penetration” (J Med Chem, 2024):

Tests used:
Pseudomonas aeruginosa [1] = assay: Potentiation of imipenem induced antibacterial activity against isogenic efflux wild type Pseudomonas aeruginosa MB9798 harbouring IMP incubated for 18 to 22 hrs imipenem and beta lactamase inhibitor by spectrophotometer based analysis; type: functional; conditions: time 18-22 hrs
[2] = Inhibition of GST tagged NDM-1 (unknown origin) expressed in Escherichia coli BL21 Star (DE3) competent cells using CCF2-FA as substrate incubated for 2 hrs by fluorescence based analysis
[3] = Inhibition of GST tagged IMP-1 (unknown origin) expressed in Escherichia coli BL21 Star (DE3) competent cells using CCF2-FA as substrate incubated for 2 hrs by fluorescence based analysis
Pseudomonas aeruginosa [4] = assay: Potentiation of imipenem induced antibacterial activity against isogenic efflux deleted mutant Pseudomonas aeruginosa MB9799 harbouring IMP incubated for 18 to 22 hrs imipenem and beta lactamase inhibitor by spectrophotometer based analysis; type: functional; conditions: time 18-22 hrs
Pseudomonas aeruginosa [5] = assay: Efflux ratio of MITC95 for potentiation of imipenem induced antibacterial activity against isogenic efflux wild type Pseudomonas aeruginosa MB9798 harbouring IMP to MITC95 for potentiation of imipenem induced antibacterial activity against isogenic efflux deleted mutant Pseudomonas aeruginosa MB9799 harbouring IMP; type: functional
[6] = Inhibition of GST tagged VIM-2 (unknown origin) expressed in Escherichia coli BL21 Star (DE3) competent cells using CCF2-FA as substrate incubated for 2 hrs by fluorescence based analysis
Escherichia coli = assay: Potentiation of imipenem induced antibacterial activity against Escherichia coli CLB30005 harbouring NDM-1 incubated for 18 to 22 hrs in presence of imipenem by spectrophotometer based analysis; type: functional; conditions: time 18-22 hrs
Serratia marcescens = assay: Potentiation of imipenem induced antibacterial activity against Serratia marcescens CL5741 harbouring IMP-1 incubated for 18 to 22 hrs imipenem by spectrophotometer based analysis; type: functional; conditions: time 18-22 hrs
[7] = Inhibition of GST tagged VIM-1 (unknown origin) expressed in Escherichia coli BL21 Star (DE3) competent cells using CCF2-FA as substrate incubated for 2 hrs by fluorescence based analysis
Klebsiella pneumoniae = assay: Potentiation of imipenem induced antibacterial activity against Klebsiella pneumoniae IHMA599644 harbouring VIM-1 incubated for 18 to 22 hrs imipenem by spectrophotometer based analysis; type: functional; conditions: time 18-22 hrs

Compound | MITC95 (Pseudomonas aeruginosa [1]) | IC50 [2] | IC50 [3] | MITC95 (Pseudomonas aeruginosa [4]) | Ratio (Pseudomonas aeruginosa [5]) | IC50 [6] | MITC95 (Escherichia coli) | MITC95 (Serratia marcescens) | IC50 [7] | MITC95 (Klebsiella pneumoniae)
Nc1ccc(-c2ccc(C(F)(F)F)c(S(N)(=O)=O)c2-c2nn[nH]n2)cn1 | 200 µM | 2.7 nM | 6.9 nM | 1.56 µM | 128 | 3.1 nM | 0.2 µM | 0.4 µM | 1.3 nM | 4.8 µM
Nc1ccc2cccc(-c3ccc(C(F)(F)F)c(S(N)(=O)=O)c3-c3nn[nH]n3)c2n1 | 12.5 µM | 0.1 nM | 0.8 nM | 0.78 µM | 16 | – | 1.6 µM | 3.1 µM | 0.4 nM | 3.1 µM
Nc1nc2c(-c3ccc(CC4CCNCC4)c(S(N)(=O)=O)c3-c3nn[nH]n3)cccc2s1 | 18 µM | 0.7 nM | 19 nM | 1.6 µM | 11 | 2.1 nM | 0.8 µM | 3.1 µM | 2.2 nM | 1.6 µM
Nc1nc2c(-c3ccc(C(F)(F)F)c(S(N)(=O)=O)c3-c3nn[nH]n3)cccc2s1 | 6.3 µM | 0.2 nM | 1 nM | 0.78 µM | 8 | 0.1 nM | 3.1 µM | 1.6 µM | 0.4 nM | 3.1 µM
Nc1ccc2ccc(-c3ccc(C(F)(F)F)c(S(N)(=O)=O)c3-c3nn[nH]n3)cc2n1 | 100 µM | 1.1 nM | 1.5 nM | 0.39 µM | 256 | – | 0.8 µM | 3.1 µM | 0.2 nM | 3.1 µM
